Common to all, as to format: functional
In assay [1] the test system is DU-145. Briefly: Cytotoxicity against Homo sapiens (human) DU145 cells assessed as cell viability at 10 uM after 72 hr by MTT assay. The conditions noted are these: DU-145, 72 h, read-out: Activity.
Assay [2] relates to HeLa. Nature of the assay: Cytotoxicity against Homo sapiens (human) HeLa cells assessed as cell viability at 10 uM after 72 hr by MTT assay. The conditions noted are these: read-out: Activity.
For assay [3], the system named is A549. Nature of the assay: Cytotoxicity against Homo sapiens (human) A549 cells assessed as cell viability at 10 uM after 72 hr by MTT assay. The conditions noted are these: A549, 72 h, read-out: Activity.

As to `Clc1cccc(-n2cc(Cn3c4ccccc4c4nc5ccccc5nc43)nn2)c1`, the results for the viability at 10 µM in assay [1], in assay [2] and in assay [3] were 77.5%, 77.5% and 104%, respectively.
With `Fc1ccc(-n2cc(Cn3c4ccccc4c4nc5ccccc5nc43)nn2)cc1`, the viability at 10 µM in assay [1] came out at 83.2%; in assay [2], 77.4%; in assay [3], 94.7%.
For `FC(F)(F)c1cccc(-n2cc(Cn3c4ccccc4c4nc5ccccc5nc43)nn2)c1`, in that order: 76.5%, 76.9% and 83.4%.
The matching figures for `Brc1ccccc1-n1cc(Cn2c3ccccc3c3nc4ccccc4nc32)nn1`: 85.4%, 75.6% and 85.5%.
For `Fc1ccc(-n2cc(Cn3c4ccccc4c4nc5ccccc5nc43)nn2)c(F)c1`, in that order: 77.4%, 80.7% and 94.7%.
Take `Fc1cc(-n2cc(Cn3c4ccccc4c4nc5ccccc5nc43)nn2)ccc1Cl`: the viability at 10 µM in assay [1] was 76.1%; in assay [2], 93.6%; in assay [3], 83.5%.
`Fc1ccc(COc2cccc(-n3cc(Cn4c5ccccc5c5nc6ccccc6nc54)nn3)c2)cc1`: the viability at 10 µM in assay [1] is 77.6%; in assay [2] it was 81.5%; in assay [3] it was 98.3%.
The matching figures for `Fc1ccc2c(c1)c1nc3ccccc3nc1n2Cc1cn(-c2ccccc2)nn1`: 72.6%, 92% and 97.8%.
The matching figures for `Fc1ccc2c(c1)c1nc3ccccc3nc1n2Cc1cn(-c2cccc(Cl)c2)nn1`: 73.2%, 77.7% and 91.9%.
On to `Fc1ccc(-n2cc(Cn3c4ccc(F)cc4c4nc5ccccc5nc43)nn2)cc1`, for which the viability at 10 µM was found to be 85% in assay [1], 91.9% in assay [2] and 97.1% in assay [3].
The matching figures for `Fc1ccc2c(c1)c1nc3ccccc3nc1n2Cc1cn(-c2cccc(C(F)(F)F)c2)nn1`: 77.5%, 86.4% and 93.7%.
For `Fc1ccc2c(c1)c1nc3ccccc3nc1n2Cc1cn(-c2ccccc2Br)nn1`, the viability at 10 µM in assay [1] came to 90.1%; in assay [2], 89.4%; in assay [3] it was 94.7%.
The matching figures for `Fc1ccc(-n2cc(Cn3c4ccc(F)cc4c4nc5ccccc5nc43)nn2)c(F)c1`: 77.3%, 86.8% and 87.9%.
As to `COc1cccc2c1C(=O)c1c(O)c3c(c(O)c1C2=O)C[C@@](O)(C(=O)CO)C[C@@H]3O[C@H]1C[C@H](N)[C@H](O)[C@H](C)O1` [DOXORUBICIN], the viability at 10 µM in assay [1] came to 9%; in assay [2] it was 12%; in assay [3], 6.33%.

The values are drawn from ChEMBL document CHEMBL3046073, “Synthesis and cytotoxicity of novel 6H-indolo[2,3-b]quinoxaline derivatives” (2013).
